target: T1, GSK3beta (Homo sapiens, UniProt P49841); experiment: Z'-LYTE kinase assay (FRET, SER/THR 9 peptide); format: biochemical; conditions: 0.04 ng/mcl GSKbeta (Invitrogen), 2 mcM SER/THR 9 peptide, 15 mcM ATP, 1 hour at room temperature, 1% DMSO
T1 construct: purchased Invitrogen
Protocol: GSK3beta activity was measured in the presence or absence of compounds using Z′-LYTE kinase assay (Rodems S M, et al., Assay Drug Dev Technol. 1: 9-19, 2002.) kit with SER/THR 9 peptide (Invitrogen) following the manufacturer's instruction. The Z′-LYTE kinase assay kit employs a fluorescence resonance energy transfer (FRET) between two fluorophores, coumarin and fluorescein, attached to each end of a substrate peptide.
Test compounds were dissolved in DMSO at 12.5 mM and then serially diluted as the DMSO concentration in the assays to be 1%. The serially diluted compounds, 0.04 ng/mcl GSKbeta (Invitrogen) and 2 mcM SER/THR 9 peptide were reacted in a reaction buffer (50 mM HEPES pH 7.5, 0.01% Brij-35, 10 mM MgCl2, 1 mM EGTA, 15 mcM ATP). For 0% phosphorylation control, ATP was omitted from the reaction mixture. For 100% phosphorylation control, SER/THR 9 phosphopeptide was used in place of the SER/THR 9 peptide. Following 1 hour incubation at room temperature, the reaction was stopped by the addition of half assay volume of development solution and further incubated for 1 hour at room temperature. After adding the half assay volume of stop reagent, emission signals of coumarin and fluorescein were measured by Wallac EnVision 2103 multilabel reader (PerkinElmer). The extent of phosphorylation was determined according to the 0% and 100% phosphorylation control samples using the following equation:
C100%=coumarin emission signal of the 100% phosphorylation control C0%=coumarin emission signal of the 0% phosphorylation control F100%=fluorescein emission signal of the 100% phosphorylation control F0%=fluorescein emission signal of the 0% phosphorylation control
IC50 values were calculated by nonlinear four parameter fit using SigmaPlot, version 10.0 (Systat Software, Inc.).

T1 sequence (P49841 whole entry): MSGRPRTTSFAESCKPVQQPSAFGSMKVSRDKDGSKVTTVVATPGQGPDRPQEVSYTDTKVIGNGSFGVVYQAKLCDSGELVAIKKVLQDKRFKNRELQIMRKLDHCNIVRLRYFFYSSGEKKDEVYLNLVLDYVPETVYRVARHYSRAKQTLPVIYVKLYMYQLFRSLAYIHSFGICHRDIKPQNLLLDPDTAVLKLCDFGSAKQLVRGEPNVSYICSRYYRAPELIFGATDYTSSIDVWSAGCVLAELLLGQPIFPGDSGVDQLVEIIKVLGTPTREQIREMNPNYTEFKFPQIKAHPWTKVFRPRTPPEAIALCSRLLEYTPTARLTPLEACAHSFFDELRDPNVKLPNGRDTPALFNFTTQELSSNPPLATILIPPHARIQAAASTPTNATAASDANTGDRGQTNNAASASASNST

SMILES | IC50 [nM]
O=C(NCCNS(=O)(=O)c1ccncc1)c1ccc(O)c2[nH]c(-c3cccs3)nc12 [Example 40, 7-Hydroxy-N-[2-(pyridine-4-sulfonamido)ethyl]-2-(thiophen-2-yl)-1H-benzo[d]imidazole-4-carboxamide] | 390
COC(=O)C(CO)NC(=O)c1ccc(O)c2[nH]c(-c3cccs3)nc12 (stereo not drawn) [Example 15, Methyl 3-Hydroxy-2-[7-hydroxy-2-(thiophen-2-yl)-1H-benzo[d]imidazole-4-carboxamido]propanoate] | 22
Cn1cncc1CCNC(=O)c1ccc(O)c2[nH]c(-c3cccs3)nc12 [Example 35, 7-Hydroxy-N-[2-(1-methyl-1H-imidazol-5-yl)ethyl]-2-(thiophen-2-yl)-1H-benzo[d]imidazole-4-carboxamide] | 130
CC(=O)NCCNC(=O)c1ccc(O)c2[nH]c(-c3cccs3)nc12 [Example 42, N-(2-Acetamidoethyl)-7-hydroxy-2-(thiophen-2-yl)-1H-benzo[d]imidazole-4-carboxamide] | 74
CC(C)NCCCNC(=O)c1ccc(O)c2[nH]c(-c3cccs3)nc12 [Example 43, N-[3-(Isopropylamino)propyl]-7-hydroxy-2-(thiophen-2-yl)-1H-benzo[d]imidazole-4-carboxamide] | 220
NS(=O)(=O)c1ccc(CCNC(=O)c2ccc(O)c3[nH]c(-c4cccs4)nc23)cc1 [Example 21, 7-Hydroxy-N-(4-sulfamoylphenethyl)-2-(thiophen-2-yl)-1H-benzo[d]imidazole-4-carboxamide] | 280
O=C(NCCNc1ccccn1)c1ccc(O)c2[nH]c(-c3cccs3)nc12 [Example 11, 7-Hydroxy-N-[2-(pyridin-2-ylamino)ethyl]-2-(thiophen-2-yl)-1H-benzo[d]imidazole-4-carboxamide] | 130
O=C(NCCCNCCO)c1ccc(O)c2[nH]c(-c3cccs3)nc12 [Example 12, 7-Hydroxy-N-[3-(2-hydroxyethylamino)propyl]-2-(thiophen-2-yl)-1H-benzo[d]imidazole-4-carboxamide] | 180
O=C(N[C@@H](CO)Cc1c[nH]cn1)c1ccc(O)c2[nH]c(-c3cccs3)nc12 [Example 17, (R)-7-Hydroxy-N-[1-hydroxy-3-(1H-imidazol-4-yl)propan-2-yl]-2-(thiophen-2-yl)-1H-benzo[d]imidazole-4-carboxamide] | 170
NS(=O)(=O)c1ccc(CNC(=O)c2ccc(O)c3[nH]c(-c4cccs4)nc23)cc1 [Example 8, 7-Hydroxy-N-(4-sulfamoylbenzyl)-2-(thiophen-2-yl)-1H-benzo[d]imidazole-4-carboxamide] | 52
CN(C)CCNC(=O)c1ccc(O)c2[nH]c(-c3cccs3)nc12 [Example 36, N-[2-(dimethylamino)ethyl]-7-hydroxy-2-(thiophen-2-yl)-1H-benzo[d]imidazole-4-carboxamide] | 180
O=C(NCc1ccc(O)c(O)c1)c1ccc(O)c2[nH]c(-c3cccs3)nc12 [Example 37, N-(3,4-Dihydroxybenzyl)-7-hydroxy-2-(thiophen-2-yl)-1H-benzo[d]imidazole-4-carboxamide] | 38

The next lines start with the values.

IC50 [nM] | SMILES
81 | CC(=O)Nc1ccc(NCCNC(=O)c2ccc(O)c3[nH]c(-c4cccs4)nc23)nc1 [Example 70, N-[2-(5-Acetamidopyridin-2-ylamino)ethyl]-7-hydroxy-2-(thiophen-2-yl)-1H-benzo[d]imidazole-4-carboxamide]
400 | Nc1ccc(CCNC(=O)c2ccc(O)c3nc(-c4ccccc4)[nH]c23)cc1 [Example 93, N-(4-Aminophenethyl)-4-hydroxy-2-phenyl-1H-benzo[d]imidazole-7-carboxamide]
340 | O=C(N[C@@H](Cc1cnc[nH]1)C(=O)O)c1ccc(O)c2[nH]c(-c3cccs3)nc12 [Example 71, (S)-2-[7-Hydroxy-2-(thiophen-2-yl)-1H-benzo[d]imidazole-4-carboxamido]-3-(1H-imidazol-5-yl)propanoic Acid]
73 | NC(=O)c1ccc(OCCNC(=O)c2ccc(O)c3[nH]c(-c4cccs4)nc23)nc1 [Example 49, N-[2-(5-Carbamoylpyridin-2-yloxy)ethyl]-7-hydroxy-2-(thiophen-2-yl)-1H-benzo[d]imidazole-4-carboxamide]
150 | O=C(NCC(O)CO)c1ccc(O)c2nc(C3CC3)[nH]c12 (stereo not drawn) [Example 97, 2-Cyclopropyl-N-(2,3-dihydroxypropyl)-4-hydroxy-1H-benzo[d]imidazole-7-carboxamide]
120 | NS(=O)(=O)c1ccc(CCNC(=O)c2ccc(O)c3nc(C4CC4)[nH]c23)cc1 [Example 101, 2-Cyclopropyl-4-hydroxy-N-(4-sulfamoylphenethyl)-1H-benzo[d]imidazole-7-carboxamide]
30 | O=C(NCCCC1C=NNC1=O)c1ccc(O)c2[nH]c(-c3ccco3)nc12 (stereo not drawn) [Example 79]
22 | CS(=O)(=O)Nc1ccc(NCCNC(=O)c2ccc(O)c3[nH]c(-c4cccs4)nc23)nc1 [Example 69, 7-Hydroxy-N-{2-[5-(methylsulfonamido)pyridin-2-ylamino]ethyl}-2-(thiophen-2-yl)-1H-benzo[d]imidazole-4-carboxamide]
1.7 | O=C(NCCCn1ccnc1)c1ccc(O)c2[nH]c(-c3cccs3)nc12 [Example 76, N-[3-(1H-Imidazol-1-yl)propyl]-7-hydroxy-2-(thiophen-2-yl)-1H-benzo[d]imidazole-4-carboxamide]
8100 | O=C(Nc1cc(O)ccc1C(=O)NC1CCCNC1)c1cccs1 (stereo not drawn) [Example 122, N-(5-hydroxy-2-(piperidin-3-ylcarbamoyl)phenyl)thiophene-2-carboxamide]
3000 | O=C(/C=C/c1cnc[nH]1)Nc1ccc(O)c2[nH]c(-c3cccs3)nc12 [Example 120]
260 | O=C(NCCc1ncc[nH]1)c1ccc(O)c2[nH]c(-c3cccs3)nc12 [Example 62, N-[2-(1H-Imidazol-2-yl)ethyl]-7-hydroxy-2-(thiophen-2-yl)-1H-benzo[d]imidazole-4-carboxamide]
19 | O=C(NCCc1ccc(O)c(O)c1)c1ccc(O)c2[nH]c(-c3ccco3)nc12 [Example 80, N-(3,4-Dihydroxyphenethyl)-2-(furan-2-yl)-7-hydroxy-1H-benzo[d]imidazole-4-carboxamide]
1700 | O=C(CCc1cnc[nH]1)Nc1ccc(O)c2[nH]c(-c3cccs3)nc12 [Example 121, N-(7-hydroxy-2-(thiophen-2-yl)-1H-benzo[d]imidazol-4-yl)-3-(1H-imidazol-5-yl)propanamide]
400 | O=C(Nc1ccc(O)cc1)c1ccc(O)c2[nH]c(C3CC3)nc12 [Example 91]

Reference: patent US20110190351A1, “Benzoimidazole Derivatives and Glycogen Synthase Kinase-3 Beta Inhibitors Containing the Same” (Oncotherapy Science, Inc., priority 2008, published 2011)
